According to patent US10359432B2, “Methods for detecting antibodies” (The Regents of the University of California, priority 2008, dated 2019):
Bridge positions count the residues as written; N and C are the ends. Ends that are not written are not given here. * marks the point of attachment. Biotin = O=C1N[C@H]2[C@H](CS[C@H]2CCCCC(=O)*)N1

Legend:
alemtuzumab = assay: Antibody-peptide binding kinetics, SkiPro interferometer, whole mAb; settings: whole molecule alemtuzumab
From the text: (§1) FIGS. 7A to 7D include graphical illustrations showing the kinetics of antibody-peptide binding. Biotinylated peptides were captured onto streptavidin coated nanoporous surfaces. The binding of the mAb or their Fab fragments was monitored on a SkiPro™ interferometer. The binding curves were globally fit to a single binding site association/dissociation model to derive Kon, Koff, and Kd values.
(§2) Kinetics of antibody-peptide binding were studied using SkiPro™ Biomolecular Interaction technology platform on a SkiPro™ interferometer equipped with a 2-channel flow cell and an autosampler (Silicon Kinetics Inc. San Diego, Calif.). All reagents were purchased from Sigma-Aldrich (St. Louis, Mo.). All peptides were incubated with oxidizing agent Sodium Tetrathionate at 10 mM in PBS for 1 hour immediately before binding experiments. Biotinylated peptides were diluted to 5 μM in PBS/0.05% BSA and immobilized on Streptavidin-coated SkiSensor™ Biochips for 10 minutes at 4 μl/min flow rate. […] Concentration series of antibodies and antibody Fab fragments were prepared as twofold dilutions in PBS/0.05% BSA. Binding was carried out for 10 minutes followed by 20 minutes dissociation. For all sensorgrams reference channel data was subtracted from the sample channel. The resulting multi-concentration series of binding curves were globally fit to a single binding site association/dissociation model.
(§3) Biotinylated peptides were used for kinetic binding measurements using nano-pore optical interferometry (FIGS. 7A-7D).

[1] = target: Fab fragments of alemtuzumab; assay: Antibody-peptide binding kinetics, SkiPro interferometer, Fab fragments
Method: as §1
Antibodies were prepared as follows. Alemtuzumab (Genzyme, Cambridge, Mass.) and rituximab (Genentech, San Francisco, Calif.) were obtained from the UCSD Cancer Center pharmacy. The antibodies were fluorescently labeled using the Zenon® R-Phycoerythrin Human IgG labeling kit, Zenon® Alexa Fluor® 488 Human IgG labeling and Zenon® Alexa Fluor® 488 protein labeling kits (Invitrogen, Carlsbad, Calif.). For kinetic studies, Fab fragments of each mAb were prepared by papain digestion using a Fab preparation kit (Thermo Fisher Scientific, Rockford, Ill.) as per manufacturers instructions.
as §2, §3

primary CLL cells = assay: Peptide inhibition of CLL cell staining by labeled mAb, flow cytometry; format: cell-based, human; settings: for Staining of primary CLL cells by fluorescently labeled mAb: no peptide
Method: The shaded histogram represents staining with labeled human IgG.
After informed consent was obtained per the Declaration of Helsinki, blood samples were collected from patients at the University of California, San Diego (UCSD) Medical Center who satisfied diagnosis and immunophenotypic criteria for common B-cell CLL.
Subsequently, cells were washed two times with 100 μl FACS-wash (PBS, 5% FCS and 0.5% sodium azide) and fixed with 100 μl with 3.7% formaldehyde in PBS.
There was no effect on the binding activity of the other mAb (data not shown).

ACGSLSPSSC [Cp-1]
Kd (alemtuzumab): 163 nM
Koff (alemtuzumab): 0.00132 s⁻¹
Kon (alemtuzumab; biotinylated peptide on streptavidin surface): 8130 M⁻¹ s⁻¹
Kd [1]: 2050 nM
Koff [1]: 0.00505 s⁻¹
Kon [1]: 2460 M⁻¹ s⁻¹

ACGSLSPSSCGGK (ACGSLSPSSCGGK(Biotin); disulfide 2-10 (inferred)) [pCp-1B]
CLL cell labeling by fluorescently labeled alemtuzumab with peptide added (primary CLL cells; peptide at 25,000 molar excess): largely abrogated

ACPYSNPSLCGGK (ACPYSNPSLCGGK(Biotin); disulfide 2-10 (inferred)) [pRTX-10B]
CLL cell labeling by fluorescently labeled rituximab with peptide added (primary CLL cells; peptide at 25,000 molar excess): largely abrogated

alemtuzumab [reference compound]
Staining of primary CLL cells by fluorescently labeled mAb (primary CLL cells): robust staining

rituximab [reference compound]
Staining of primary CLL cells by fluorescently labeled mAb (primary CLL cells): weak
